Measurements taken from the kinase profiling compilation of Christmann-Franck et al. (2016).

Assays:
Test in all cases: radiometric filter-binding kinase assay
CSNK1D (human) = CSNK1D (human) (UniProt P48730)
SRC (human) = SRC (human) (UniProt P12931)
RIPK2 (human) = RIPK2 (human) (UniProt O43353)
MINK1 (human) = MINK1 (human) (UniProt Q8N4C8)
PRKCZ (human) = PRKCZ (human) (UniProt Q05513)
CSK (human) = CSK (human) (UniProt P41240)
JAK2 JH1 JH2 (human) = JAK2 JH1 JH2 (human) (UniProt O60674)
HIPK3 (human) = HIPK3 (human) (UniProt Q9H422)
NTRK1 (human) = NTRK1 (human) (UniProt P04629)
FLT1 (human) = FLT1 (human) (UniProt P17948)
TAOK1 (human) = TAOK1 (human) (UniProt Q7L7X3)
IRAK4 (human) = IRAK4 (human) (UniProt Q9NWZ3)
MELK (human) = MELK (human) (UniProt Q14680)
IGF1R (human) = IGF1R (human) (UniProt P08069)
GSK3B (human) = GSK3B (human) (UniProt P49841)
EPHA2 (human) = EPHA2 (human) (UniProt P29317)
CLK2 (human) = CLK2 (human) (UniProt P49760)
MAPK14 (human) = MAPK14 (human) (UniProt Q16539)
ROCK2 (rat) = conditions: accession and sequence are those of the human protein
MAP3K1 (human) = MAP3K1 (human) (UniProt Q13233)
MAPK11 (human) = MAPK11 (human) (UniProt Q15759)
DYRK3 (human) = DYRK3 (human) (UniProt O43781)
LCK (mouse) = conditions: accession and sequence are those of the human protein
HIPK1 (human) = HIPK1 (human) (UniProt Q86Z02)
RPS6KA3 KD1 KD2 (human) = RPS6KA3 KD1 KD2 (human) (UniProt P51812)
[1] = test system: AKT2 (human), P31751 [S474D]
BRSK1 (human) = BRSK1 (human) (UniProt Q8TDC3)
MARK1 (human) = MARK1 (human) (UniProt Q9P0L2)
FGFR1 (human) = FGFR1 (human) (UniProt P11362)
[2] = biological target: STK11 CAB39 STRADA (human) (UniProt Q9Y376+Q7RTN6+Q15831)
MAPK15 (human) = MAPK15 (human) (UniProt Q8TD08)
MAP3K7 TAB1 (human) = MAP3K7 TAB1 (human) (UniProt Q15750+O43318)
INSR (human) = INSR (human) (UniProt P06213)
CAMKK2 (human) = CAMKK2 (human) (UniProt Q96RR4)
MAPKAPK5 (human) = MAPKAPK5 (human) (UniProt Q8IW41)
MAPKAPK5 (human), sequence (Q8IW41 whole entry, looked up): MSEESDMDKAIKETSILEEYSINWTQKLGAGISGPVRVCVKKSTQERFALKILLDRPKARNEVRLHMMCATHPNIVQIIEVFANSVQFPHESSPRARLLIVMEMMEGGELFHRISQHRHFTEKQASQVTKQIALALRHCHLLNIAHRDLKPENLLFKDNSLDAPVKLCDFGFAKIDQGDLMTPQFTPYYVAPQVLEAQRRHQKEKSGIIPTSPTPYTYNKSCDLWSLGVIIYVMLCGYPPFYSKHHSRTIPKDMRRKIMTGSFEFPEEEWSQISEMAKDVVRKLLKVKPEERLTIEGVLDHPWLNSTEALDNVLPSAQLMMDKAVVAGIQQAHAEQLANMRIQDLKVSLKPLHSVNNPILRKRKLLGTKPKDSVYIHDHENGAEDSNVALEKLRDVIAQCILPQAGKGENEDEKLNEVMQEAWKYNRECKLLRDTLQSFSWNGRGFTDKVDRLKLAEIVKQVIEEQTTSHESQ

SRC (human), sequence (P12931 whole entry, looked up): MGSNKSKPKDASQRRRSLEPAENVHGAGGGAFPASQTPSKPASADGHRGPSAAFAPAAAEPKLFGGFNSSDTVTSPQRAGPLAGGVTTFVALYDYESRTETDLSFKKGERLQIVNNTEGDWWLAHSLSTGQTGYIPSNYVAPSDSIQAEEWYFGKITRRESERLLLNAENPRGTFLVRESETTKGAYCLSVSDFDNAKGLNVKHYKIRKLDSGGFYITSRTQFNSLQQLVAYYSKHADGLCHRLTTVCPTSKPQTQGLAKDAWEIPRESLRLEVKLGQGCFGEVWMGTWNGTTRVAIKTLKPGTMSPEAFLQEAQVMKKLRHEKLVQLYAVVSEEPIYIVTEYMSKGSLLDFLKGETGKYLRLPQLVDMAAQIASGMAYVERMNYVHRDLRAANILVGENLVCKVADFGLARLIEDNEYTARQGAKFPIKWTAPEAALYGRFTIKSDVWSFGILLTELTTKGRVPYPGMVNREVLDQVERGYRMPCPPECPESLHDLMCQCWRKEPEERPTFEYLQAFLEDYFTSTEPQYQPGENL
INSR (human), sequence (P06213 whole entry, looked up): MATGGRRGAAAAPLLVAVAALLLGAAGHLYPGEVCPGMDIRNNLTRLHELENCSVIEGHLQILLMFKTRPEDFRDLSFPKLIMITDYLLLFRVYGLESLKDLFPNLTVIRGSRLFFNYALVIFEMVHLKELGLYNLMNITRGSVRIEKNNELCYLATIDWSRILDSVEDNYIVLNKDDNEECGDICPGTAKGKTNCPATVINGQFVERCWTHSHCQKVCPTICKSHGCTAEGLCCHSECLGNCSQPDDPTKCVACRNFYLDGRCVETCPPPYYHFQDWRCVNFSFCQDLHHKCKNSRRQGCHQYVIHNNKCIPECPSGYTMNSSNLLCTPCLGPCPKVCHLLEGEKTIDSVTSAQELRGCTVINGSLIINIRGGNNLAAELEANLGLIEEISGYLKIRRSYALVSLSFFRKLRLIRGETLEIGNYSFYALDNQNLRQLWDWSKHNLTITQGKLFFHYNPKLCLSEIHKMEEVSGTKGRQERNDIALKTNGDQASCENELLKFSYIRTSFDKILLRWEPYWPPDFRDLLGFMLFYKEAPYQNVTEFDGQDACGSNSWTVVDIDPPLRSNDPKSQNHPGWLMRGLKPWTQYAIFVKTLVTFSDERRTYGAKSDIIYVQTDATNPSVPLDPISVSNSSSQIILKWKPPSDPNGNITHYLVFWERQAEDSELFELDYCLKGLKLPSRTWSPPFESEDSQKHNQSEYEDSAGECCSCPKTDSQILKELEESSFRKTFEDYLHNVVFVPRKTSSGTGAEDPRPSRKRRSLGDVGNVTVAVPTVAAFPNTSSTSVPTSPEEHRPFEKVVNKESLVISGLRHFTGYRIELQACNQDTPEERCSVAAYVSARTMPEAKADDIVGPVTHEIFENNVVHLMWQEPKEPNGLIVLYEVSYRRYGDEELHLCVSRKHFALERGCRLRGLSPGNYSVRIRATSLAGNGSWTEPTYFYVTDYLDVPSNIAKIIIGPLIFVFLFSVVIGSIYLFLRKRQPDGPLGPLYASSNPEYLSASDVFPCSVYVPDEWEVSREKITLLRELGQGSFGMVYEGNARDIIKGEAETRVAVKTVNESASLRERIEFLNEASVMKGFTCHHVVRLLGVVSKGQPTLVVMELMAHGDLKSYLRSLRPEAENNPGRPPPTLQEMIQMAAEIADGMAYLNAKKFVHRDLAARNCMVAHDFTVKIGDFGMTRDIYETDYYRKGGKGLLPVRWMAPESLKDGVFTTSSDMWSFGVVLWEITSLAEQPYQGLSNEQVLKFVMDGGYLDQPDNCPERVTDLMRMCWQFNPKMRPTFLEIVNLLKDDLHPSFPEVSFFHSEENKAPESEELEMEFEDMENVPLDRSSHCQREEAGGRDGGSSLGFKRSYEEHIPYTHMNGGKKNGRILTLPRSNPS
AKT2 (human), P31751 [S474D], sequence (P31751 whole entry S474D, looked up): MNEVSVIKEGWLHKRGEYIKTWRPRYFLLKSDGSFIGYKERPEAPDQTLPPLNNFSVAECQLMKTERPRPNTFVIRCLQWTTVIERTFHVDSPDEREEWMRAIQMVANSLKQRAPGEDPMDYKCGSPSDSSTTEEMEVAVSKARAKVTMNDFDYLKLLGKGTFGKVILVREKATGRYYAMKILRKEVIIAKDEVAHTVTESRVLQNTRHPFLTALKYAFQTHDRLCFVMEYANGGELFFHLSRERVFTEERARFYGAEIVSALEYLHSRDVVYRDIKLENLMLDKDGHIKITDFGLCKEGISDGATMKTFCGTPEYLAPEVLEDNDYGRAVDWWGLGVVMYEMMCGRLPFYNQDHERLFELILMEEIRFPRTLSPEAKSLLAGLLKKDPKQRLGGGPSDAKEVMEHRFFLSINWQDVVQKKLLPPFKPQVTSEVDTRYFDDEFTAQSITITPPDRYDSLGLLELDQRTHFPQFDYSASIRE
IRAK4 (human), sequence (Q9NWZ3 whole entry, looked up): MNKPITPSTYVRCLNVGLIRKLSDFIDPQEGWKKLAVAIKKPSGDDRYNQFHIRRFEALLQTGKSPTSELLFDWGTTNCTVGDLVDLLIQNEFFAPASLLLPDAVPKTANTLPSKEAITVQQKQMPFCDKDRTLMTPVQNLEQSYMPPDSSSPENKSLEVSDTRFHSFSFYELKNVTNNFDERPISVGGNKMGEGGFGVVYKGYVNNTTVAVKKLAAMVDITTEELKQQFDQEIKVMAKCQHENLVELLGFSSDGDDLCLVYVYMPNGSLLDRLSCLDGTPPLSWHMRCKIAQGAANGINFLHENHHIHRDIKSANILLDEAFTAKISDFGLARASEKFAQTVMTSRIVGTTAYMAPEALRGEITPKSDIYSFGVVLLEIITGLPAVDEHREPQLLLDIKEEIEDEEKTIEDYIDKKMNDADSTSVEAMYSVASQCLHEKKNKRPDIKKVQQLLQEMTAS
MAPK14 (human), sequence (Q16539 whole entry, looked up): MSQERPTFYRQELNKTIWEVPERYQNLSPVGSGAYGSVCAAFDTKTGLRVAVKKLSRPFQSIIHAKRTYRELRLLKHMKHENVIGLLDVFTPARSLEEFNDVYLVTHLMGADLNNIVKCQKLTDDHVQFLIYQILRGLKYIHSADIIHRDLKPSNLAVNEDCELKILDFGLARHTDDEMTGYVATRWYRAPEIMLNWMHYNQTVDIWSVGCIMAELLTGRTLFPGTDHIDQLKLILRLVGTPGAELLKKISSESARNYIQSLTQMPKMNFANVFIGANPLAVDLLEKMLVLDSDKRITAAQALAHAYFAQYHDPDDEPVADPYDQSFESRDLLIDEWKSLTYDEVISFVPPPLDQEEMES
RPS6KA3 KD1 KD2 (human), sequence (P51812 whole entry, looked up): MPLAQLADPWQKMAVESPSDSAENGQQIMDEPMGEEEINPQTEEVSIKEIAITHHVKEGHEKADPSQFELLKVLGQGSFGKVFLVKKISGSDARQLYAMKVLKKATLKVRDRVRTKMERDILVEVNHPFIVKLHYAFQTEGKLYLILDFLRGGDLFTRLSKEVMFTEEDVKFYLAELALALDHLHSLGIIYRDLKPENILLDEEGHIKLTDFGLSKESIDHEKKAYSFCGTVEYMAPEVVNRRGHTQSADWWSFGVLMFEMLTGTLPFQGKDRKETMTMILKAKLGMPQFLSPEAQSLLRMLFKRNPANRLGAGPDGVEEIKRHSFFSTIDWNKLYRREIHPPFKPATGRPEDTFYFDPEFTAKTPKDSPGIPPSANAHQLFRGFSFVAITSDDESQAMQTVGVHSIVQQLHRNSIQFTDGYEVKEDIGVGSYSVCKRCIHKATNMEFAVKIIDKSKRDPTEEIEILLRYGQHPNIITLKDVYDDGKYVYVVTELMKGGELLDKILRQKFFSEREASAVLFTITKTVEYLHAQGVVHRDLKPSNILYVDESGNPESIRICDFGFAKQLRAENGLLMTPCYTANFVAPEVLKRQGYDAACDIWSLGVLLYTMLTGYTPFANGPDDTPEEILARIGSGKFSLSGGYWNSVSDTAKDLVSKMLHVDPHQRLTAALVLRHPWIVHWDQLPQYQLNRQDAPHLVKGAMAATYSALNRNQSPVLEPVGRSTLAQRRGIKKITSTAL
MAPK11 (human), sequence (Q15759 whole entry, looked up): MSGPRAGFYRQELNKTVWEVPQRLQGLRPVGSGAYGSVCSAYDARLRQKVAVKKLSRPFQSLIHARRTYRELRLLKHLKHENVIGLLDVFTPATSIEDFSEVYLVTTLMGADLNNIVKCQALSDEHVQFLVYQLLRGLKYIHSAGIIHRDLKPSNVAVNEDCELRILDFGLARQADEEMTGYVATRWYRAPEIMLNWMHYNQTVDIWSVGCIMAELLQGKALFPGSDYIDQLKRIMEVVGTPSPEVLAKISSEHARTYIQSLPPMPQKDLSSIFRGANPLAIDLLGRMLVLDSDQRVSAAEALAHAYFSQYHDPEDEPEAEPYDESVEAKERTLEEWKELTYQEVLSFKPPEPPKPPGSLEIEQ

In the case of C=C1C(=O)OC2C1CC/C(C)=C/CCC1(C)OC21 (centres undefined), the residual activity (CSNK1D (human); compound 1.0 µM) is reported as 99%, the residual activity (SRC (human); compound 1.0 µM) is reported as 110% and the residual activity (SRC (human); compound 5.0 µM) is reported as 111%. The residual activity (RIPK2 (human); compound 1.0 µM) was 101%, the residual activity (RIPK2 (human); compound 5.0 µM) was 112% and the residual activity (MINK1 (human); compound 1.0 µM) was 108%. The residual activity (MINK1 (human); compound 5.0 µM) was 122%, the residual activity (PRKCZ (human); compound 1.0 µM) was 117% and the residual activity (PRKCZ (human); compound 5.0 µM) was 98%. For the same compound, the residual activity (CSK (human); compound 5.0 µM) was 98%, the residual activity (JAK2 JH1 JH2 (human); compound 1.0 µM) was 116% and the residual activity (JAK2 JH1 JH2 (human); compound 5.0 µM) was 98%. It also gave a residual activity (HIPK3 (human); compound 1.0 µM) of 110%, a residual activity (HIPK3 (human); compound 5.0 µM) of 122% and a residual activity (NTRK1 (human); compound 1.0 µM) of 106%. For the same compound, the residual activity (NTRK1 (human); compound 5.0 µM) was 83%, the residual activity (FLT1 (human); compound 1.0 µM) was 109% and the residual activity (FLT1 (human); compound 5.0 µM) was 98%. It also gave a residual activity (TAOK1 (human); compound 5.0 µM) of 103%, a residual activity (IRAK4 (human); compound 1.0 µM) of 106% and a residual activity (IRAK4 (human); compound 5.0 µM) of 97%. The residual activity (MELK (human); compound 1.0 µM) was 138%, the residual activity (MELK (human); compound 5.0 µM) was 100% and the residual activity (IGF1R (human); compound 1.0 µM) was 120%. It also gave a residual activity (IGF1R (human); compound 5.0 µM) of 109%, a residual activity (GSK3B (human); compound 1.0 µM) of 106% and a residual activity (GSK3B (human); compound 5.0 µM) of 105%. For the same compound, the residual activity (EPHA2 (human); compound 1.0 µM) was 104%, the residual activity (EPHA2 (human); compound 5.0 µM) was 99% and the residual activity (CLK2 (human); compound 1.0 µM) was 90%. For the same compound, the residual activity (CLK2 (human); compound 5.0 µM) was 93%, the residual activity (MAPK14 (human); compound 1.0 µM) was 105% and the residual activity (MAPK14 (human); compound 5.0 µM) was 111%. For the same compound, the residual activity (ROCK2 (rat); compound 1.0 µM) was 123%, the residual activity (ROCK2 (rat); compound 5.0 µM) was 113% and the residual activity (MAP3K1 (human); compound 1.0 µM) was 112%. It also gave a residual activity (MAP3K1 (human); compound 5.0 µM) of 120%, a residual activity (MAPK11 (human); compound 1.0 µM) of 111% and a residual activity (MAPK11 (human); compound 5.0 µM) of 121%. The residual activity (DYRK3 (human); compound 1.0 µM) was 124%, the residual activity (DYRK3 (human); compound 5.0 µM) was 106% and the residual activity (LCK (mouse); compound 1.0 µM) was 112%. For the same compound, the residual activity (HIPK1 (human); compound 1.0 µM) was 114%, the residual activity (HIPK1 (human); compound 5.0 µM) was 106% and the residual activity (RPS6KA3 KD1 KD2 (human); compound 1.0 µM) was 102%. The residual activity (RPS6KA3 KD1 KD2 (human); compound 5.0 µM) was 94%, the residual activity ([1]; compound 1.0 µM) was 101% and the residual activity ([1]; compound 5.0 µM) was 92%. It also gave a residual activity (BRSK1 (human); compound 1.0 µM) of 109%, a residual activity (BRSK1 (human); compound 5.0 µM) of 108% and a residual activity (MARK1 (human); compound 1.0 µM) of 100%. It also gave a residual activity (MARK1 (human); compound 5.0 µM) of 94%, a residual activity (FGFR1 (human); compound 1.0 µM) of 106% and a residual activity (FGFR1 (human); compound 5.0 µM) of 99%. It also gave a residual activity ([2]; compound 1.0 µM) of 132%, a residual activity ([2]; compound 5.0 µM) of 106% and a residual activity (MAPK15 (human); compound 1.0 µM) of 98%. For the same compound, the residual activity (MAPK15 (human); compound 5.0 µM) was 119% and the residual activity (MAP3K7 TAB1 (human); compound 1.0 µM) was 109%.

Work on COC(=O)/C=C/C(=O)OC yielded a residual activity (CSNK1D (human); compound 10.0 µM) of 88%, a residual activity (CSNK1D (human); compound 100.0 µM) of 94% and a residual activity (CSNK1D (human); compound 1000.0 µM) of 105%. It also gave a residual activity (SRC (human); compound 100.0 µM) of 104%, a residual activity (SRC (human); compound 1000.0 µM) of 103% and a residual activity (RIPK2 (human); compound 10.0 µM) of 93%. It also gave a residual activity (RIPK2 (human); compound 100.0 µM) of 104%, a residual activity (RIPK2 (human); compound 1000.0 µM) of 111% and a residual activity (PRKCZ (human); compound 10.0 µM) of 89%. It also gave a residual activity (PRKCZ (human); compound 100.0 µM) of 103%, a residual activity (CSK (human); compound 10.0 µM) of 87% and a residual activity (CSK (human); compound 100.0 µM) of 82%. For the same compound, the residual activity (CSK (human); compound 1000.0 µM) was 86%, the residual activity (JAK2 JH1 JH2 (human); compound 10.0 µM) was 100% and the residual activity (JAK2 JH1 JH2 (human); compound 100.0 µM) was 105%. It also gave a residual activity (JAK2 JH1 JH2 (human); compound 1000.0 µM) of 116%, a residual activity (HIPK3 (human); compound 10.0 µM) of 81% and a residual activity (HIPK3 (human); compound 100.0 µM) of 94%. It also gave a residual activity (HIPK3 (human); compound 1000.0 µM) of 86%, a residual activity (NTRK1 (human); compound 10.0 µM) of 88% and a residual activity (NTRK1 (human); compound 100.0 µM) of 96%. The residual activity (NTRK1 (human); compound 1000.0 µM) was 83%, the residual activity (INSR (human); compound 10.0 µM) was 60% and the residual activity (INSR (human); compound 100.0 µM) was 62%. For the same compound, the residual activity (INSR (human); compound 1000.0 µM) was 79%, the residual activity (FLT1 (human); compound 10.0 µM) was 108% and the residual activity (FLT1 (human); compound 100.0 µM) was 110%. The residual activity (FLT1 (human); compound 1000.0 µM) was 98%, the residual activity (TAOK1 (human); compound 10.0 µM) was 91% and the residual activity (TAOK1 (human); compound 100.0 µM) was 109%. The residual activity (TAOK1 (human); compound 1000.0 µM) was 123%, the residual activity (IRAK4 (human); compound 10.0 µM) was 88% and the residual activity (IRAK4 (human); compound 100.0 µM) was 104%. It also gave a residual activity (IRAK4 (human); compound 1000.0 µM) of 117%, a residual activity (CAMKK2 (human); compound 100.0 µM) of 101% and a residual activity (CAMKK2 (human); compound 1000.0 µM) of 93%. For the same compound, the residual activity (MELK (human); compound 10.0 µM) was 93%, the residual activity (MELK (human); compound 100.0 µM) was 103% and the residual activity (IGF1R (human); compound 100.0 µM) was 92%. The residual activity (IGF1R (human); compound 1000.0 µM) was 117%, the residual activity (GSK3B (human); compound 10.0 µM) was 92% and the residual activity (GSK3B (human); compound 1000.0 µM) was 108%. The residual activity (EPHA2 (human); compound 10.0 µM) was 106%, the residual activity (EPHA2 (human); compound 100.0 µM) was 124% and the residual activity (EPHA2 (human); compound 1000.0 µM) was 129%. The residual activity (CLK2 (human); compound 10.0 µM) was 92%, the residual activity (CLK2 (human); compound 100.0 µM) was 100% and the residual activity (CLK2 (human); compound 1000.0 µM) was 101%. For the same compound, the residual activity (MAPK14 (human); compound 10.0 µM) was 90%, the residual activity (MAPK14 (human); compound 100.0 µM) was 99% and the residual activity (MAPK14 (human); compound 1000.0 µM) was 106%. It also gave a residual activity (ROCK2 (rat); compound 10.0 µM) of 81%, a residual activity (ROCK2 (rat); compound 100.0 µM) of 89% and a residual activity (ROCK2 (rat); compound 1000.0 µM) of 98%. The residual activity (MAP3K1 (human); compound 100.0 µM) was 95%, the residual activity (MAPK11 (human); compound 10.0 µM) was 111% and the residual activity (MAPK11 (human); compound 1000.0 µM) was 104%. It also gave a residual activity (DYRK3 (human); compound 10.0 µM) of 105%, a residual activity (DYRK3 (human); compound 1000.0 µM) of 106% and a residual activity (LCK (mouse); compound 10.0 µM) of 74%. For the same compound, the residual activity (LCK (mouse); compound 100.0 µM) was 72%, the residual activity (LCK (mouse); compound 1000.0 µM) was 84% and the residual activity (HIPK1 (human); compound 100.0 µM) was 95%. For the same compound, the residual activity (RPS6KA3 KD1 KD2 (human); compound 1000.0 µM) was 117%, the residual activity ([1]; compound 10.0 µM) was 81% and the residual activity ([1]; compound 100.0 µM) was 93%. For the same compound, the residual activity ([1]; compound 1000.0 µM) was 106%, the residual activity (MAPKAPK5 (human); compound 10.0 µM) was 96% and the residual activity (MAPKAPK5 (human); compound 100.0 µM) was 92%. It also gave a residual activity (MAPKAPK5 (human); compound 1000.0 µM) of 94%, a residual activity (BRSK1 (human); compound 100.0 µM) of 93% and a residual activity (BRSK1 (human); compound 1000.0 µM) of 91%. The residual activity (MARK1 (human); compound 10.0 µM) was 98%, the residual activity (MARK1 (human); compound 100.0 µM) was 115% and the residual activity (MARK1 (human); compound 1000.0 µM) was 108%. It also gave a residual activity (FGFR1 (human); compound 10.0 µM) of 85%, a residual activity ([2]; compound 10.0 µM) of 93% and a residual activity ([2]; compound 100.0 µM) of 97%. For the same compound, the residual activity ([2]; compound 1000.0 µM) was 100%, the residual activity (MAPK15 (human); compound 10.0 µM) was 89% and the residual activity (MAPK15 (human); compound 100.0 µM) was 100%. It also gave a residual activity (MAPK15 (human); compound 1000.0 µM) of 96%, a residual activity (MAP3K7 TAB1 (human); compound 10.0 µM) of 105% and a residual activity (MAP3K7 TAB1 (human); compound 100.0 µM) of 115%. It also gave a residual activity (MAP3K7 TAB1 (human); compound 1000.0 µM) of 103%.
